Results as given in patent publication US20220249397A1, “Automated Dosing Protocol for Use of Cannabinoids or Other Psychoactive Substances” (Function Better Inc., priority 2021, published 2022).

Tests used:
Format in all cases: in vivo, human
[1] = test system: subjects being treated for anxiety; experiment: Experimental trial, 9-day dosing protocol, subjects treated for anxiety
Experimental: (§1) An experimental trial was conducted on 11 subjects who followed a 9-day dosing protocol for CBD oil. The subjects sought treatment for anxiety, pain, or sleep. On a daily basis, the subjects rated the intensity of their symptoms on a 0-10 numeric scale, with 0 being best and 10 being worst intensity. This scale was constructed similar to the standard ‘Numeric Pain Rating Scale’ often used in clinical practice for pain assessment.
(§2) The trial further enrolled five additional subjects. […] Days 1-3 were a maximum of 5 mg CBD; days 4-6 were a maximum of 10 mg CBD; days 7-9 were a maximum of 20 mg CBD.

[2] = test system: subjects being treated for pain; experiment: Experimental trial, 9-day dosing protocol, subjects treated for pain
Experimental: as §1, §2

[3] = test system: subjects being treated for either anxiety, sleep, or pain; experiment: Experimental trial, all 16 subjects combined (anxiety, sleep or pain), mean daily scores
Experimental: as §1, §2

user with pain = experiment: Example 1: 9 day dose titration protocol by automated text messages, user treating pain; design: key to pain score: higher = worse pain; 8 = severe, 6 = moderate
Experimental: In this example This is an example of an automated text message exchange with a user for a 9 day (consecutive) dose titration protocol is sufficient to achieve a minimum effective dose. In this example, Twilio was the automated text messaging service that was used. The cannabinoid medication kit is three 15 ml bottles of CBD tincture (i.e. CBD mixed into an ethyl alcohol base): bottle #1, bottle #2, and bottle #3. Bottle #1 contains CBD at a concentration of 100 mg in 5 ml volume (20 mg/ml). Bottle #2 contains CBD at a higher concentration (2×) of 200 mg in 5 ml volume (40 mg/ml). Bottle #3 contains CBD at a further higher concentration (3×) of 300 mg in 5 ml volume (60 mg/ml). Because the three bottles have different dose amounts, to facilitate identifying the correct bottle and avoid mistakes, bottle #1 has a blue-colored label, bottle #2 has a yellow-colored label, and bottle #3 has an orange-colored label. The user inputs the product code or batch number. This ensures that the relevant dosing protocol is associated with the correct cannabinoid product.
On day #1, the user reports a pain score of 8, indicating severe pain. Accordingly, the user is instructed to take the first dose of 6.25 mg from the (blue bottle) twice daily, and continue this dose regimen for the next three days. To facilitate correct adherence to the instructions, the user is shown an image of the blue bottle and the correct liquid level marking on the graduated dropper. On day #2, the user reports a pain score of 6, indicating a reduction in pain symptoms to a moderate level.
On day #4, the user reports a pain score of 5, indicating a reduction in pain symptoms. […] The user is shown an image of the yellow bottle and the correct liquid level marking on the graduated dropper. On day #5, the user reports a pain score of 7, indicating a flare-up of the pain symptoms. The user is asked whether there were any external factors that might have caused this flare-up. […] Thus, the user is asked whether to pause the protocol to allow the user to reassess whether this treatment will be beneficial. Here, the user desires to continue CBD treatment.
Accordingly, the user is given reassurance and instructed to continue at the same dose (i.e. 12.5 mg twice daily).
It is now time for the user to increase the dose amount to stabilize the pain at that level. Accordingly, the user is instructed to switch to the orange bottle (60 mg/ml) and take 18.75 mg twice daily. The user is shown an image of the orange bottle and the correct liquid level marking on the graduated dropper. […] Accordingly, the user is instructed to continue the same dosing regimen (i.e. 18.75 mg twice daily). […] Accordingly, the user has reached the personalized minimum effective dose and is instructed to continue the same dosing regimen (i.e. 18.75 mg twice daily) from hereon. At the end of the protocol, the user also receives a summary report that indicates the minimum effective dose, the lowest pain score achieved, the starting and ending benchmarks, and a graph plotting the daily symptom scores.

C=C(C)[C@@H]1CCC(C)=C[C@H]1c1c(O)cc(CCCCC)cc1O [CBD, cannabidiol]
minimum optimal dose ([1]; Subject #C1_8, anxiety): 20 mg of CBD/day | anxiety score after completion of the protocol ([1]; Subject #C1_8, started with score of 5, 0-10 scale): 1 | minimum optimal dose ([1]; Subject #C1_10, anxiety): 10 mg of CBD/day | anxiety score after completion of the protocol ([1]; Subject #C1_10, started with score of 7, 0-10 scale): 2 | minimum optimal dose ([2]; Subject #C1_4, pain): 10 mg of CBD/day | pain score after completion of the protocol ([2]; Subject #C1_4, started with score of 3, 0-10 scale): 0 | mean scores, initial versus end score ([3]; days 1-3 max 5 mg, days 4-6 max 10 mg, days 7-9 max 20 mg CBD, FIG. 7): mean scores improved | mean daily scores, trend line ([3]; days 1-9, FIG. 8): downward trending line | pain score (user with pain; day #2, CBD tincture 6.25 mg twice daily, day #1 score 8): 6 | pain score (user with pain; day #3, CBD tincture 6.25 mg twice daily): 6 | pain score (user with pain; day #4, after 6.25 mg twice daily for three days): 5 | pain score (user with pain; day #5, 12.5 mg twice daily, flare-up): 7 | pain score (user with pain; day #6, 12.5 mg twice daily): 5 | pain score (user with pain; day #7, after 12.5 mg twice daily): 4 | pain score (user with pain; day #8, 18.75 mg twice daily): 4 | pain score (user with pain; day #9, 18.75 mg twice daily): 4 | personalized minimum effective dose (user with pain; reached on day #9, pain): 18.75 mg twice daily
